{"source": "PubChem BioAssay AID2060600", "about": "(Molecular Pharmacology Branch, DTP, NCI, 2025);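 further: spheroids exposed to the agents for 7 days before readout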", "test_system": "996289-038-R-J1-PDC complex spheroid viability", "assay": "Anticancer human tumor 996289-038-R-J1-PDC patient-derived colon adenocarcinoma cell line growth inhibition [CLK]", "settings": "for IC50: curve of first compound; for viability, T/C: stronger effect = lower value", "outline": "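Patient-derived tumor cells grown as complex spheroids with HUVEC endothelial cells and mesenchymal stem cells, treated with drug combinations. Concentrations descend in half-log steps from near clinical Cmax, or from 10 microM if Cmax unknown.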", "key": {"[1]": {"settings": "second compound 0.0316 µM, first compound 0.0316 µM"}, "[2]": {"settings": "second compound 0.0316 µM, first compound 0.1 µM"}, "[3]": {"settings": "second compound 0.0316 µM, first compound 0.316 µM"}, "[4]": {"settings": "second compound 0.0316 µM, first compound 1 µM"}, "[5]": {"settings": "second compound 0.0316 µM, first compound 3.16 µM"}, "[6]": {"settings": "second compound 0.0316 µM, first compound 10 µM"}, "[7]": {"settings": "second compound 0.1 µM, first compound 0.0316 µM"}, "[8]": {"settings": "second compound 0.1 µM, first compound 0.1 µM"}, "[9]": {"settings": "second compound 0.1 µM, first compound 0.316 µM"}, "[10]": {"settings": "second compound 0.1 µM, first compound 1 µM"}, "[11]": {"settings": "second compound 0.1 µM, first compound 3.16 µM"}, "[12]": {"settings": "second compound 0.1 µM, first compound 10 µM"}, "[13]": {"settings": "second compound 0.316 µM, first compound 0.0316 µM"}, "[14]": {"settings": "second compound 0.316 µM, first compound 0.1 µM"}, "[15]": {"settings": "second compound 0.316 µM, first compound 0.316 µM"}, "[16]": {"settings": "second compound 0.316 µM, first compound 1 µM"}, "[17]": {"settings": "second compound 0.316 µM, first compound 3.16 µM"}, "[18]": {"settings": "second compound 0.316 µM, first compound 10 µM"}, "[19]": {"settings": "second compound 1 µM, first compound 0.0316 µM"}, "[20]": {"settings": "second compound 1 µM, first compound 0.1 µM"}, "[21]": {"settings": "second compound 1 µM, first compound 0.316 µM"}, "[22]": {"settings": "second compound 1 µM, first compound 1 µM"}, "[23]": {"settings": "second compound 1 µM, first compound 3.16 µM"}, "[24]": {"settings": "second compound 1 µM, first compound 10 µM"}, "[25]": {"settings": "second compound 3.16 µM, first compound 0.0316 µM"}, "[26]": {"settings": "second compound 3.16 µM, first compound 0.1 µM"}, "[27]": {"settings": "second compound 3.16 µM, first compound 0.316 µM"}, "[28]": {"settings": "second compound 3.16 µM, first compound 1 µM"}, "[29]": {"settings": "second compound 3.16 µM, first compound 3.16 µM"}, "[30]": {"settings": "second compound 3.16 µM, first compound 10 µM"}, "[31]": {"settings": "second compound 10 µM, first compound 0.0316 µM"}, "[32]": {"settings": "second compound 10 µM, first compound 0.1 µM"}, "[33]": {"settings": "second compound 10 µM, first compound 0.316 µM"}, "[34]": {"settings": "second compound 10 µM, first compound 1 µM"}, "[35]": {"settings": "second compound 10 µM, first compound 3.16 µM"}, "[36]": {"settings": "second compound 10 µM, first compound 10 µM"}}}
{"smiles": "COc1ccc([C@@H](O)c2cc(-c3ncnc4cc(N5CCOCC5)ccc34)c(F)cc2Cl)nn1", "note": "+ CN1CCN(c2cc(C(=O)Nc3cc4cc(-c5cnn(C)c5)ccc4cn3)ccn2)CC1", "values": [{"measurement": "IC50", "setting": "second compound 0.0316 µM", "value": "> 10", "unit": "µM"}, {"measurement": "IC50", "setting": "second compound 0.1 µM", "value": 6.69, "unit": "µM"}, {"measurement": "IC50", "setting": "second compound 0.316 µM", "value": 3.19, "unit": "µM"}, {"measurement": "IC50", "setting": "second compound 1 µM", "value": "< 0.0316", "unit": "µM"}, {"measurement": "IC50", "setting": "second compound 3.16 µM", "value": "< 0.0316", "unit": "µM"}, {"measurement": "IC50", "setting": "second compound 10 µM", "value": "< 0.0316", "unit": "µM"}, {"measurement": "viability, T/C", "setting": "[1]", "value": 93.2, "unit": "%"}, {"measurement": "viability, T/C", "setting": "[2]", "value": 94.8, "unit": "%"}, {"measurement": "viability, T/C", "setting": "[3]", "value": 91.7, "unit": "%"}, {"measurement": "viability, T/C", "setting": "[4]", "value": 85.7, "unit": "%"}, {"measurement": "viability, T/C", "setting": "[5]", "value": 76.6, "unit": "%"}, {"measurement": "viability, T/C", "setting": "[6]", "value": 50.2, "unit": "%"}, {"measurement": "viability, T/C", "setting": "[7]", "value": 85.3, "unit": "%"}, {"measurement": "viability, T/C", "setting": "[8]", "value": 95.1, "unit": "%"}, {"measurement": "viability, T/C", "setting": "[9]", "value": 87.8, "unit": "%"}, {"measurement": "viability, T/C", "setting": "[10]", "value": 79.8, "unit": "%"}, {"measurement": "viability, T/C", "setting": "[11]", "value": 67.7, "unit": "%"}, {"measurement": "viability, T/C", "setting": "[12]", "value": 40.8, "unit": "%"}, {"measurement": "viability, T/C", "setting": "[13]", "value": 61.1, "unit": "%"}, {"measurement": "viability, T/C", "setting": "[14]", "value": 64.8, "unit": "%"}, {"measurement": "viability, T/C", "setting": "[15]", "value": 61.9, "unit": "%"}, {"measurement": "viability, T/C", "setting": "[16]", "value": 59.8, "unit": "%"}, {"measurement": "viability, T/C", "setting": "[17]", "value": 49.8, "unit": "%"}, {"measurement": "viability, T/C", "setting": "[18]", "value": 27.1, "unit": "%"}, {"measurement": "viability, T/C", "setting": "[19]", "value": 3.25, "unit": "%"}, {"measurement": "viability, T/C", "setting": "[20]", "value": 3.83, "unit": "%"}, {"measurement": "viability, T/C", "setting": "[21]", "value": 3.78, "unit": "%"}, {"measurement": "viability, T/C", "setting": "[22]", "value": 4.19, "unit": "%"}, {"measurement": "viability, T/C", "setting": "[23]", "value": 3.66, "unit": "%"}, {"measurement": "viability, T/C", "setting": "[24]", "value": 3.61, "unit": "%"}, {"measurement": "viability, T/C", "setting": "[25]", "value": 1.19, "unit": "%"}, {"measurement": "viability, T/C", "setting": "[26]", "value": 0.85, "unit": "%"}, {"measurement": "viability, T/C", "setting": "[27]", "value": 1.09, "unit": "%"}, {"measurement": "viability, T/C", "setting": "[28]", "value": 1.26, "unit": "%"}, {"measurement": "viability, T/C", "setting": "[29]", "value": 2.9, "unit": "%"}, {"measurement": "viability, T/C", "setting": "[30]", "value": 2.02, "unit": "%"}, {"measurement": "viability, T/C", "setting": "[31]", "value": 0.92, "unit": "%"}, {"measurement": "viability, T/C", "setting": "[32]", "value": 0.41, "unit": "%"}, {"measurement": "viability, T/C", "setting": "[33]", "value": 1.74, "unit": "%"}, {"measurement": "viability, T/C", "setting": "[34]", "value": 0.52, "unit": "%"}, {"measurement": "viability, T/C", "setting": "[35]", "value": 0.52, "unit": "%"}, {"measurement": "viability, T/C", "setting": "[36]", "value": 0.65, "unit": "%"}]}
{"smiles": "COc1cccc2c1C(=O)c1c(O)c3c(c(O)c1C2=O)CC(O)(C(=O)CO)CC3OC1CC(N)C(O)C(C)O1", "note": "(centres undefined) + CN1CCN(c2cc(C(=O)Nc3cc4cc(-c5cnn(C)c5)ccc4cn3)ccn2)CC1", "values": [{"measurement": "IC50", "setting": "second compound 0.0316 µM", "value": 1.4, "unit": "µM"}, {"measurement": "IC50", "setting": "second compound 0.1 µM", "value": 0.775, "unit": "µM"}, {"measurement": "IC50", "setting": "second compound 0.316 µM", "value": 0.218, "unit": "µM"}, {"measurement": "IC50", "setting": "second compound 1 µM", "value": "< 0.0316", "unit": "µM"}, {"measurement": "IC50", "setting": "second compound 3.16 µM", "value": "< 0.0316", "unit": "µM"}, {"measurement": "IC50", "setting": "second compound 10 µM", "value": "< 0.0316", "unit": "µM"}, {"measurement": "viability, T/C", "setting": "[1]", "value": 89.6, "unit": "%"}, {"measurement": "viability, T/C", "setting": "[2]", "value": 91.8, "unit": "%"}, {"measurement": "viability, T/C", "setting": "[3]", "value": 71.9, "unit": "%"}, {"measurement": "viability, T/C", "setting": "[4]", "value": 52.5, "unit": "%"}, {"measurement": "viability, T/C", "setting": "[5]", "value": 45.2, "unit": "%"}, {"measurement": "viability, T/C", "setting": "[6]", "value": 33.8, "unit": "%"}, {"measurement": "viability, T/C", "setting": "[7]", "value": 89.3, "unit": "%"}, {"measurement": "viability, T/C", "setting": "[8]", "value": 83.5, "unit": "%"}, {"measurement": "viability, T/C", "setting": "[9]", "value": 60.2, "unit": "%"}, {"measurement": "viability, T/C", "setting": "[10]", "value": 44.5, "unit": "%"}, {"measurement": "viability, T/C", "setting": "[11]", "value": 40.6, "unit": "%"}, {"measurement": "viability, T/C", "setting": "[12]", "value": 26.3, "unit": "%"}, {"measurement": "viability, T/C", "setting": "[13]", "value": 67.8, "unit": "%"}, {"measurement": "viability, T/C", "setting": "[14]", "value": 56.9, "unit": "%"}, {"measurement": "viability, T/C", "setting": "[15]", "value": 42.1, "unit": "%"}, {"measurement": "viability, T/C", "setting": "[16]", "value": 38.6, "unit": "%"}, {"measurement": "viability, T/C", "setting": "[17]", "value": 33.6, "unit": "%"}, {"measurement": "viability, T/C", "setting": "[18]", "value": 16.1, "unit": "%"}, {"measurement": "viability, T/C", "setting": "[19]", "value": 4.05, "unit": "%"}, {"measurement": "viability, T/C", "setting": "[20]", "value": 4.33, "unit": "%"}, {"measurement": "viability, T/C", "setting": "[21]", "value": 4.01, "unit": "%"}, {"measurement": "viability, T/C", "setting": "[22]", "value": 3.89, "unit": "%"}, {"measurement": "viability, T/C", "setting": "[23]", "value": 4.94, "unit": "%"}, {"measurement": "viability, T/C", "setting": "[24]", "value": 7.17, "unit": "%"}, {"measurement": "viability, T/C", "setting": "[25]", "value": 0.81, "unit": "%"}, {"measurement": "viability, T/C", "setting": "[26]", "value": 1.53, "unit": "%"}, {"measurement": "viability, T/C", "setting": "[27]", "value": 2.41, "unit": "%"}, {"measurement": "viability, T/C", "setting": "[28]", "value": 2.9, "unit": "%"}, {"measurement": "viability, T/C", "setting": "[29]", "value": 5.23, "unit": "%"}, {"measurement": "viability, T/C", "setting": "[30]", "value": 5.47, "unit": "%"}, {"measurement": "viability, T/C", "setting": "[31]", "value": 1.39, "unit": "%"}, {"measurement": "viability, T/C", "setting": "[32]", "value": 0.35, "unit": "%"}, {"measurement": "viability, T/C", "setting": "[33]", "value": 0.5, "unit": "%"}, {"measurement": "viability, T/C", "setting": "[34]", "value": 0.45, "unit": "%"}, {"measurement": "viability, T/C", "setting": "[35]", "value": 0.53, "unit": "%"}, {"measurement": "viability, T/C", "setting": "[36]", "value": 0.61, "unit": "%"}]}
